Legend:
[1] = Pilot feeding study, food supplemented with esters of β-hydroxybutyrate and butanediol; assay type: in vivo, C57BL/6 male mice; conditions: 10% w/w in chow
From the text: Different esters of β-hydroxybutyrate and butanediol were synthesized as described above and purified for testing in mice. The esters of β-hydroxybutyrate and butanediol that were supplemented into the diet of the mice in this study were as follows: 1) C8 diesters of butanediol (C8x2-BD); 2) C8 monoesters of β-hydroxybutyrate (C8-BHB); 3) C6 diesters of β-hydroxybutyrate (C6x2-BHB); 4) C6 monoesters of β-hydroxybutyrate (C6-BHB); and 5) C6 diesters of butanediol (C6x2-BD). Food compositions supplemented with 1,3-butanediol were also tested. Compounds were mixed at 10% w/w in ground normal chow (20% calories from protein) to match standard vivarium feed. The food was provided in a glass jar inside the animal cage. n=2 mice/condition, 18 mice total. All mice were 12 month-old C57BL/6 males. Mice were placed in individual cages to record food intake more precisely. Food was switched back to normal chow at 72 hrs (ground and in a glass jar).

APPJ20 mice = assay: EEG epileptiform spikes before and after intraperitoneal injection of C6-BHB; assay type: in vivo
Method: C6 and C8 esters of butanediol and C6 and C8 esters of β-hydroxybutyrate were synthesized as described above. The C6 ester of β-hydroxybutyrate was tested for efficacy in suppressing spikes in APPJ20 mice by intraperitoneal injection into 1-2 year-old APPJ20 mice including both male and female mice. The APPJ20 mice were described in Example 5.
(§1) EEGs were recorded from APPJ20 mice before and after intraperitoneal injection of C6-BHB, or an equivalent volume of saline. Following completion of the first 50 min recording, the injection was performed. Mice were then allowed to recover for 20 minutes in their home cage, followed by the second 50 min EEG recording. Blood was drawn immediately following completion of the second EEG session in order to measure plasma BHB levels (as described in Example 4). The lower of the two previously tested doses from Example 4 was injected, 50 μL per 30 g body weight, which is approximately 1.5 g/kg and approximately 0.2 millimoles.
(§2) During the EEG recordings, mice were freely moving in a transparent cylinder approximately the size of a home cage. Methodology for recording and analysis of EEGs and video tracking for movement was described in Example 5. Methodology for blood draws and plasma BHB measurement was described in Example 4.
The study used a cross-over design where all mice were injected with both C6-BHB and normal saline on different days, with at least 48 hours between injections. Data analysis was limited to mice that completed all injections and EEG recordings.

[2] = Pilot feeding study, food supplemented with C6 monoester of β-hydroxybutyrate; assay type: in vivo, C57BL/6 male mice
Method: C6 monoester of β-hydroxybutyrate was synthesized as described above and purified for testing in mice. The C6 monoester of β-hydroxybutyrate was mixed into ground control food (10% calories from protein), the same control diet used in the above examples involving ketogenic and control diet. The food was placed in a glass jar inside the animal cage at the start of the nighttime feeding cycle, 19:00 h. Different concentrations of the C6 monoester of β-hydroxybutyrate (w/w) were mixed into the control diet to determine which concentration was sufficient to raise BHB levels in the mice. n=4 mice/condition (2 mice per cage). All mice were 12 month-old C57BL/6 males.

[3] = Plasma BHB levels after intraperitoneal injection of C6 and C8 esters; assay type: in vivo, wild-type C57BL/6 male mice; conditions: for blood BHB levels: intraperitoneal injection, 50 uL and 100 uL (approx. 1-3 g/kg), blood up to 6 hours after injection
Method: C6 and C8 esters of butanediol and C6 and C8 esters of β-hydroxybutyrate were synthesized as described above and purified for testing in wild-type C57BL/6Ncrl male mice obtained from Charles River Laboratories. Mice were 8 months old at the time of the experiment. The biological function of C6 and C8 esters of butanediol and β-hydroxybutyrate was tested by intraperitoneal injection at two doses each, 50 uL and 100 uL. Injection was performed approximately 9 am (mice are maintained on 7a-7p light-dark cycle) and mice had access to food and water at all times. The molar quantity injected varied from 0.13-0.41 millimoles depending on the compound and dose. The subject mice weighed approximately 30 grams, so the quantity of compound injected ranged approximately from 1 g/kg to 3 g/kg. For comparison, these amounts could theoretically supply about 1/20 of a mouse's daily caloric needs—equivalent in humans to around 100 calories. Blood was drawn by distal tail nick just prior to injection (baseline) and at 30 min, 1 hour, 2 hours, 4 hours, and 6 hours after injection. Approximately 40 uL of blood was collected into lithium-heparin microvettes (Sarstedt CB-300LH) and subsequently centrifuged 15 min at 1500×G at 4° C. to separate plasma. Plasma BHB levels were determined by a colorimetric enzymatic assay (Stanbio Laboratory 2440-058).

[4] = Plasma BHB after intraperitoneal injection in APPJ20 mice; assay type: in vivo; conditions: approximately 70-80 minutes after i.p. injection; from a median of approximately 200 μM
Method: as §1, §2

[5] = Feeding study, food supplemented with C6 diesters of β-hydroxybutyrate; assay type: in vivo, C57BL/6 male mice; conditions: 10% w/w in diet, eighth night
From the text: Based on the results of the above Pilot studies, the C6 diesters of β-hydroxybutyrate were selected for a longer study with a greater number of mice to see if it would remain ketogenic even after food intake normalized. C6 diesters of β-hydroxybutyrate were synthesized as described above and purified for testing in mice. The C6 diesters of β-hydroxybutyrate were mixed at 10% w/w into ground standard chow diet (20% calories from protein), which was re-formed into pellets. Re-pelleted food was used to minimize any variable effects from a change in diet texture to ground.
The pelleted food was consumed by the mice after being placed in a glass jar in the animal cage. Four mice per diet were tested, with the mice individually caged. All mice were 12 month-old C57BL/6 males. Daily weight and caloric intake was monitored and blood was drawn for glucose and β-hydroxybutyrate levels on the eighth night. […] By the 7th night, the weights of the mice stabilized and 24 hour caloric intake was similar between the control diet and the mice that consumed food supplemented with C6 esters of β-hydroxybutyrate.

CCCCCC(=O)OCC [C6, reference compound]
hypoglycaemias [1]: can be explained by fasting

CCCCCC(=O)O[C@H](C)CC(=O)OCC [C6-BHB]
epileptiform spikes (APPJ20 mice; after i.p. 50 μL per 30 g body weight, saline 1.25 spikes/min): 0.82 spikes/min
reduction of epileptiform spikes compared to saline injection (APPJ20 mice; i.p. 50 μL per 30 g body weight (approx. 1.5 g/kg), 50 min EEG): approximately 35%
epileptiform spikes after injection (APPJ20 mice; i.p. injection, 50 min EEG): reduces spikes compared to both pre-injection baselines and injection of saline
spike reduction compared to after saline, at the individual mouse level (APPJ20 mice; i.p. injection, P<0.05): significant reductions for most mice
hypoglycaemias [1]: likely a result of the compound
BHB level in the blood ([2]; 2.5% or 5% by weight in food): slight increase in BHB level in the blood
BHB level in the blood against the targeted threshold ([2]; 2.5% or 5% by weight in food): ≤ 500
β-hydroxybutyrate concentration in blood ([2]; 10% or 20% by weight in food, probably explained by fasting): greater increase in β-hydroxybutyrate concentration
side effect observed ([3]; higher dose (100 uL), intraperitoneal): mild sedation
blood BHB levels [3]: increased BHB levels to that seen on a ketogenic diet (0.5-2 mM), or after an overnight fast (1-3 mM)
plasma BHB levels, median [4]: approximately 600 μM

CCCCCCOC(=O)C[C@@H](C)OC(=O)CCCCC [C6x2-BHB]
plasma β-hydroxybutyrate against targeted threshold [5]: ≥ 500 µM
β-hydroxybutyrate plasma concentrations versus control diet ([5]; normal caloric intake): greater β-hydroxybutyrate plasma concentrations

CCCCCCCC(=O)O[C@H](C)CC(=O)OCC [C8-BHB]
hypoglycaemias [1]: can be explained by fasting
blood concentration of β-hydroxybutyrate ([1]; targeted 500 μM threshold): high BHB value
blood BHB levels [3]: increased BHB levels to that seen on a ketogenic diet (0.5-2 mM), or after an overnight fast (1-3 mM)
